Reference: US4605744A, “Imidazole derivatives” (Hoffmann-La Roche Inc., priority 1985, dated 1986)
Where two headings read alike, the source gives them in different places.

Key:
E. cloacae 4633 = assay: In vivo activity alone and in combination (PD50, FIC); conditions: Enterobacter cloacae, 4633, sc, read-out: PD50 (alone)
Experimental: (§1) In Tables 9-14, the results of the in vivo activity against certain microorganisms of compounds I, M and N as given. […] The results in these Tables and the PD50 's were determined by the procedure set forth on page 160 in Beskid et al., Antimicrobial Agents and Chemotherapy, Vol. 20, No. 2 pp. 159-167 (Aug. 1981) for "in vivo studies".
(§2) In the Tables, the fractional inhibitory concentration index (FIC) for synergistic combination of a compound of this invention (X) with known antibiotic compound (Y) is determined by the following formula:
(§3) FIC=(PD50 (X combination)/PD50 (X alone)+(PD50 (Y
(§4) combination)/PD50 (Y alone)
(§5) An FIC of ≤0.60 is indicative of synergy. The synergy rating in the Tables is as follows:
(§6) In the combination, the parts are parts by weight, i.e. 10 to 1 is 10 parts by weight to 1 part by weight.

E. coli BC5524 = assay: as above
Experimental: as §1, §2, §3, §4, §5, §6

E. coli 257 = assay: In vivo antibacterial activity (PD50); conditions: Escherichia coli, 257, sc, challenge >10^4 LD50s, 1 treatment
E. coli 5152 = assay: In vivo antibacterial activity (PD50); conditions: Escherichia coli, 5152, sc, 2 treatments
E. aerogenes 8 = assay: In vivo antibacterial activity (PD50); conditions: Klebsiella aerogenes, 8, sc, read-out: PD50, sc, 2 treatments
S. marcescens SM = assay: In vivo antibacterial activity (PD50); conditions: Serratia marcescens; sc; challenge 489 LD50s; 2 treatments; Table 11
P. aeruginosa 503-56 = assay: In vivo antibacterial activity (PD50); conditions: Pseudomonas aeruginosa, 50356, sc, challenge 50 LD50s, 2 treatments, Table 11
S. aureus Smith = assay: In vivo antibacterial activity (PD50); conditions: Staphylococcus aureus, sc, challenge 70 LD50s, 2 treatments, Table 11
S. pyogenes 4 = assay: In vivo antibacterial activity (PD50); conditions: Streptococcus pyogenes, 4, sc, sc, 2 treatments, read-out: PD50
S. pneumoniae 6302 = assay: In vivo antibacterial activity (PD50); conditions: Streptococcus pneumoniae, 6302, sc, challenge 1000 LD50s, 1 treatment, Table 11
S. faecalis C1 = assay: In vivo antibacterial activity (PD50); conditions: Enterococcus faecalis, C1; sc; challenge 10 LD50s; 1 treatment; Table 11
P. aeruginosa 6148B = assay: In vivo antibacterial activity (PD50); conditions: Pseudomonas aeruginosa, sc
P. aeruginosa 6720 = assay: In vivo antibacterial activity (PD50); conditions: Pseudomonas aeruginosa, 6720, sc, 2 treatments
P. aeruginosa 6719 = assay: In vivo antibacterial activity (PD50); conditions: Pseudomonas aeruginosa, 6719, sc
P. aeruginosa 8710 = assay: In vivo antibacterial activity (PD50); conditions: Pseudomonas aeruginosa, 8710, sc
P. aeruginosa 6799 = assay: In vivo antibacterial activity (PD50); conditions: Pseudomonas aeruginosa, 6799, sc, read-out: PD50
K. pneumoniae HE7 = assay: In vivo antibacterial activity (PD50); conditions: Klebsiella pneumoniae, HE7, sc, 2 treatments
E. cloacae 6951 = assay: In vivo antibacterial activity (PD50); conditions: Enterobacter cloacae, 6951, sc, 2 treatments
S. marcescens S3 = assay: In vivo antibacterial activity (PD50); conditions: Serratia marcescens, S3; sc; challenge 32 LD50s; 2 treatments; Table 11; read-out: PD50
E. coli 387-1 = assay: In vivo antibacterial activity (PD50); conditions: Escherichia coli, 3871; sc; challenge 127 LD50s; 1 treatment; Table 11
K. pneumoniae 8357 = assay: animal or person; assay type: in vivo; conditions: Klebsiella pneumoniae, 8357, sc, read-out: PD50
E. cloacae 214 = assay: In vivo antibacterial activity (PD50); conditions: Enterobacter cloacae, sc, challenge 3.8 LD50s, 2 treatments, Table 11
Experimental: as §1

S. schottmuelleri = assay: In vivo antibacterial activity (PD50); conditions: sc; challenge 163 LD50s; 1 treatment; Table 11
Experimental: as §1

C. freundii 8ASM = assay: In vivo antibacterial activity (PD50); conditions: Citrobacter freundii, sc, challenge 1000 LD50s, 1 treatment, Table 11
P. vulgaris 100 = assay: In vivo antibacterial activity (PD50); conditions: Proteus vulgaris; sc; challenge 100 LD50s; 1 treatment; Table 11
P. mirabilis 190 = assay: In vivo antibacterial activity (PD50); conditions: Proteus mirabilis, sc, challenge 10^4 LD50s, 1 treatment, Table 11
E. coli 736 = assay: In vivo activity alone and in combination (PD50, FIC); conditions: Escherichia coli, sc, alone
Experimental: as §1, §2, §3, §4, §5, §6

K. pneumoniae 503-990A = assay: as above; conditions: sc; for ED50: Klebsiella pneumoniae, 503990A, alone
Experimental: as §1, §2, §3, §4, §5, §6

CC(=O)OCC1=C(C(=O)O)N2C(=O)[C@@H](NC(=O)Cc3cccs3)[C@H]2SC1 [Cephalothin, cephalothin, reference compound] was tested, and the ED50 (E. cloacae 4633) was over 250 mg/kg, the ED50 (E. coli BC5524; Escherichia coli, BC5524, sc, read-out: PD50 (alone), sc) was under 250 mg/kg and the “PD50 (alone)” value (E. coli BC5524; sc) was over 250 mg/kg.

In the case of CO/N=C(\C(=O)N[C@@H]1C(=O)N2C(C(=O)O)=C(CSc3nc(=O)c(=O)[nH]n3C)CS[C@H]12)c1csc(N)n1 [Ceftriaxone, ceftriaxone], the ED50 (E. coli 257; Table 10) is reported as under 1 mg/kg, the ED50 (E. coli 257; Table 11) is reported as under 1 mg/kg and the ED50 (E. coli 5152; challenge 2717 LD50s, Table 10) is reported as under 5 mg/kg. For the same compound, the ED50 (E. coli 5152; challenge 4780 LD50s, Table 11) was under 2 mg/kg, the ED50 (E. aerogenes 8; challenge 10 LD50s, Table 11) was 6.9 mg/kg and the ED50 (E. aerogenes 8; challenge 24 LD50s, Table 10) was 6.8 mg/kg. It also gave an ED50 (S. marcescens SM) of under 2 mg/kg, an ED50 (P. aeruginosa 503-56) of over 250 mg/kg and an ED50 (S. aureus Smith) of 3.2 mg/kg. It also gave an ED50 (S. pyogenes 4; challenge 3.3 LD50s, Table 11) of under 2 mg/kg, an ED50 (S. pyogenes 4; challenge 100 LD50s, Table 10) of over 2 mg/kg and an ED50 (S. pneumoniae 6302) of 0.22 mg/kg. For the same compound, the ED50 (S. faecalis C1) was 50 mg/kg, the ED50 (P. aeruginosa 6148B; challenge 4.5 LD50s, 3 treatments, Table 10) was under 5 mg/kg and the ED50 (P. aeruginosa 6148B; challenge 32 LD50s, 2 treatments, Table 11) was 62 mg/kg. For the same compound, the ED50 (P. aeruginosa 6148B; challenge 33 LD50s, 3 treatments, Table 10) was 8 mg/kg, the ED50 (P. aeruginosa 6720; challenge 35 LD50s, Table 11) was 15 mg/kg and the ED50 (P. aeruginosa 6720; challenge 3511 LD50s, Table 10) was 14 mg/kg. The ED50 (P. aeruginosa 6719; challenge 2249 LD50s, 3 treatments, Table 10) was 18 mg/kg, the ED50 (P. aeruginosa 6719; challenge 2290 LD50s, 2 treatments, Table 11) was 15 mg/kg and the ED50 (P. aeruginosa 8710; alone, challenge 1738 LD50s, Table 13, read-out: PD50 (alone)) was 41 mg/kg. For the same compound, the ED50 (P. aeruginosa 8710; challenge >10^4 LD50s, 2 treatments, Table 11, read-out: PD50) was 31 mg/kg, the ED50 (P. aeruginosa 6799) was under 10 mg/kg and the ED50 (P. aeruginosa 6799; sc, challenge 71 LD50s, 2 treatments, Table 11) was 16 mg/kg. It also gave an ED50 (K. pneumoniae HE7; challenge 750 LD50s, Table 10) of under 1 mg/kg, an ED50 (K. pneumoniae HE7; challenge 1000 LD50s, Table 11) of 0.39 mg/kg and an ED50 (E. cloacae 6951; challenge 562 LD50s, Table 10) of under 1 mg/kg. It also gave an ED50 (E. cloacae 6951; challenge 3162 LD50s, Table 11) of 0.03 mg/kg, an ED50 (S. marcescens S3) of 0.03 mg/kg and an ED50 (E. coli 387-1) of 0.09 mg/kg. The ED50 (K. pneumoniae 8357) was 0.03 mg/kg, the ED50 (E. cloacae 214) was under 10 mg/kg and the ED50 (S. schottmuelleri) was under 0.5 mg/kg. For the same compound, the ED50 (C. freundii 8ASM) was 0.15 mg/kg, the ED50 (P. vulgaris 100) was 0.05 mg/kg and the ED50 (P. mirabilis 190) was 0.007 mg/kg.

CC1(C)S[C@@H]2[C@H](NC(=O)[C@H](N)c3ccccc3)C(=O)N2[C@H]1C(=O)O [Ampicillin, ampicillin, reference compound] showed an ED50 (E. coli 736) of 5 mg/kg, an ED50 (K. pneumoniae 503-990A) of 29 mg/kg and an ED50 (K. pneumoniae 503-990A; Table 14 line (1)) of 58 mg/kg. For the same compound, the ED50 (K. pneumoniae 503-990A; Table 14 line (2)) was 10 mg/kg and the “PD50 (alone)” value (K. pneumoniae 503-990A) was 16 mg/kg.
